# Test results from ChEMBL document CHEMBL3885861, “Open TG-GATES”.
# Species: Rattus norvegicus
# Assay: Open TG-GATES - Regimen: Single
# Type: toxicity, organism-based, Sprague-Dawley
# Design: regimen Single, gender Male, age 6 weeks
# Conditions: in vivo, po, route gavage; for Bas / Eos / Fbg / Hb / Ht / Lym / MCH / MCHC / MCV / Mono / Neu / PT / Plat / RBC / Ret / WBC: tissue Blood; for KIDNEY_L / KIDNEY_R / KIDNEY_TOTAL: tissue Kidney; for LIVER: tissue Liver; for ALP / ALT / AST / BUN / CRE / Ca / Cl / DBIL / GLC / IP / K / LDH / Na / PL / RALB / TBIL / TC / TG / TP / gamma-GTP: tissue Plasma
# [1] = 150 mg/kg, 3 h, dose level Middle
# [2] = 150 mg/kg, 6 h, dose level Middle
# [3] = 150 mg/kg, 9 h, dose level Middle
# [4] = 150 mg/kg, 24 h, dose level Middle
structure (smiles),measurement,setting,value
CN(C)CCCN1c2ccccc2Sc2ccc(Cl)cc21 [CHLORPROMAZINE],TERMINAL_BW,"45 mg/kg, 9 h, dose level Low",211.4 g
same,Bas,"45 mg/kg, 9 h, dose level Low",0%
same,Eos,"45 mg/kg, 9 h, dose level Low",1%
same,Fbg,"45 mg/kg, 9 h, dose level Low",219.2 mg/dL
same,Hb,"45 mg/kg, 9 h, dose level Low",12.8 g/dL
same,Ht,"45 mg/kg, 9 h, dose level Low",37.4%
same,Lym,"45 mg/kg, 9 h, dose level Low",76.6%
same,MCH,"45 mg/kg, 9 h, dose level Low",21.4 pg
same,MCHC,"45 mg/kg, 9 h, dose level Low",34.1%
same,MCV,"45 mg/kg, 9 h, dose level Low",62.7 fL
same,Mono,"45 mg/kg, 9 h, dose level Low",2.8%
same,Neu,"45 mg/kg, 9 h, dose level Low",18.8%
same,PT,"45 mg/kg, 9 h, dose level Low",12.3 s
same,Plat,"45 mg/kg, 9 h, dose level Low",128.5 x10_4/uL
same,RBC,"45 mg/kg, 9 h, dose level Low",596.6 x10_4/ul
same,Ret,"45 mg/kg, 9 h, dose level Low",8%
same,WBC,"45 mg/kg, 9 h, dose level Low",53.8 x10_2/uL
same,KIDNEY_L,"45 mg/kg, 9 h, dose level Low",0.9 g
same,KIDNEY_R,"45 mg/kg, 9 h, dose level Low",0.9 g
same,KIDNEY_TOTAL,"45 mg/kg, 9 h, dose level Low",1.8 g
same,LIVER,"45 mg/kg, 9 h, dose level Low",9.1 g
same,ALP,"45 mg/kg, 9 h, dose level Low",807.4 IU/L
same,ALT,"45 mg/kg, 9 h, dose level Low",28.2 IU/L
same,AST,"45 mg/kg, 9 h, dose level Low",63.2 IU/L
same,BUN,"45 mg/kg, 9 h, dose level Low",9.4 mg/dL
same,CRE,"45 mg/kg, 9 h, dose level Low",0.4 mg/dL
same,Ca,"45 mg/kg, 9 h, dose level Low",10.4 mg/dL
same,Cl,"45 mg/kg, 9 h, dose level Low",106.4 meq/L
same,DBIL,"45 mg/kg, 9 h, dose level Low",0.07 mg/dL
same,GLC,"45 mg/kg, 9 h, dose level Low",263.8 mg/dL
same,IP,"45 mg/kg, 9 h, dose level Low",9.6 mg/dL
same,K,"45 mg/kg, 9 h, dose level Low",3.6 meq/L
same,LDH,"45 mg/kg, 9 h, dose level Low",215.6 IU/L
same,Na,"45 mg/kg, 9 h, dose level Low",143.4 meq/L
same,PL,"45 mg/kg, 9 h, dose level Low",147.2 mg/dL
same,RALB,"45 mg/kg, 9 h, dose level Low",3.4 g/dL
same,TBIL,"45 mg/kg, 9 h, dose level Low",0.1 mg/dL
same,TC,"45 mg/kg, 9 h, dose level Low",84.4 mg/dL
same,TG,"45 mg/kg, 9 h, dose level Low",14 mg/dL
same,TP,"45 mg/kg, 9 h, dose level Low",5.6 g/dL
same,gamma-GTP,"45 mg/kg, 9 h, dose level Low",0.8 IU/L
same,TERMINAL_BW,"45 mg/kg, 24 h, dose level Low",211.2 g
same,Bas,"45 mg/kg, 24 h, dose level Low",1%
same,Eos,"45 mg/kg, 24 h, dose level Low",0.8%
same,Fbg,"45 mg/kg, 24 h, dose level Low",213.6 mg/dL
same,Hb,"45 mg/kg, 24 h, dose level Low",14.3 g/dL
same,Ht,"45 mg/kg, 24 h, dose level Low",42%
same,Lym,"45 mg/kg, 24 h, dose level Low",77.8%
same,MCH,"45 mg/kg, 24 h, dose level Low",21.7 pg
same,MCHC,"45 mg/kg, 24 h, dose level Low",33.9%
same,MCV,"45 mg/kg, 24 h, dose level Low",64.1 fL
same,Mono,"45 mg/kg, 24 h, dose level Low",2.4%
same,Neu,"45 mg/kg, 24 h, dose level Low",17.6%
same,PT,"45 mg/kg, 24 h, dose level Low",11.7 s
same,Plat,"45 mg/kg, 24 h, dose level Low",137.7 x10_4/uL
same,RBC,"45 mg/kg, 24 h, dose level Low",656.8 x10_4/ul
same,Ret,"45 mg/kg, 24 h, dose level Low",7.5%
same,WBC,"45 mg/kg, 24 h, dose level Low",87 x10_2/uL
same,KIDNEY_L,"45 mg/kg, 24 h, dose level Low",1 g
same,KIDNEY_R,"45 mg/kg, 24 h, dose level Low",1 g
same,KIDNEY_TOTAL,"45 mg/kg, 24 h, dose level Low",2 g
same,LIVER,"45 mg/kg, 24 h, dose level Low",9.2 g
same,ALP,"45 mg/kg, 24 h, dose level Low",861 IU/L
same,ALT,"45 mg/kg, 24 h, dose level Low",35.8 IU/L
same,AST,"45 mg/kg, 24 h, dose level Low",84 IU/L
same,BUN,"45 mg/kg, 24 h, dose level Low",21.8 mg/dL
same,CRE,"45 mg/kg, 24 h, dose level Low",0.5 mg/dL
same,Ca,"45 mg/kg, 24 h, dose level Low",10.7 mg/dL
same,Cl,"45 mg/kg, 24 h, dose level Low",104.6 meq/L
same,DBIL,"45 mg/kg, 24 h, dose level Low",0.062 mg/dL
same,GLC,"45 mg/kg, 24 h, dose level Low",217.8 mg/dL
same,IP,"45 mg/kg, 24 h, dose level Low",8.9 mg/dL
same,K,"45 mg/kg, 24 h, dose level Low",3.8 meq/L
same,LDH,"45 mg/kg, 24 h, dose level Low",239.4 IU/L
same,Na,"45 mg/kg, 24 h, dose level Low",144 meq/L
same,PL,"45 mg/kg, 24 h, dose level Low",132.2 mg/dL
same,RALB,"45 mg/kg, 24 h, dose level Low",3.7 g/dL
same,TBIL,"45 mg/kg, 24 h, dose level Low",0.1 mg/dL
same,TC,"45 mg/kg, 24 h, dose level Low",70.8 mg/dL
same,TG,"45 mg/kg, 24 h, dose level Low",76.4 mg/dL
same,TP,"45 mg/kg, 24 h, dose level Low",5.9 g/dL
same,gamma-GTP,"45 mg/kg, 24 h, dose level Low",1 IU/L
same,TERMINAL_BW,[1],221.2 g
same,Bas,[1],0%
same,Eos,[1],0.8%
same,Fbg,[1],211.2 mg/dL
same,Hb,[1],12.6 g/dL
same,Ht,[1],37.6%
same,Lym,[1],73.4%
same,MCH,[1],21.3 pg
same,MCHC,[1],33.5%
same,MCV,[1],63.4 fL
same,Mono,[1],2.6%
same,Neu,[1],22.2%
same,PT,[1],12.4 s
same,Plat,[1],120.3 x10_4/uL
same,RBC,[1],593.4 x10_4/ul
same,Ret,[1],8.4%
same,WBC,[1],49.8 x10_2/uL
same,KIDNEY_L,[1],0.9 g
same,KIDNEY_R,[1],0.9 g
same,KIDNEY_TOTAL,[1],1.8 g
same,LIVER,[1],9.9 g
same,ALP,[1],942 IU/L
same,ALT,[1],33.4 IU/L
same,AST,[1],71.4 IU/L
same,BUN,[1],10.8 mg/dL
same,CRE,[1],0.4 mg/dL
same,Ca,[1],10.9 mg/dL
same,Cl,[1],105.6 meq/L
same,DBIL,[1],0.062 mg/dL
same,GLC,[1],229.6 mg/dL
same,IP,[1],10.3 mg/dL
same,K,[1],3.8 meq/L
same,LDH,[1],212.2 IU/L
same,Na,[1],145.2 meq/L
same,PL,[1],132.2 mg/dL
same,RALB,[1],3.4 g/dL
same,TBIL,[1],0.1 mg/dL
same,TC,[1],69.8 mg/dL
same,TG,[1],61.8 mg/dL
same,TP,[1],5.4 g/dL
same,gamma-GTP,[1],1 IU/L
same,TERMINAL_BW,[2],215.2 g
same,Bas,[2],0%
same,Eos,[2],1%
same,Fbg,[2],209.8 mg/dL
same,Hb,[2],12.4 g/dL
same,Ht,[2],36.4%
same,Lym,[2],73%
same,MCH,[2],21 pg
same,MCHC,[2],34.2%
same,MCV,[2],61.6 fL
same,Mono,[2],2.4%
same,Neu,[2],23%
same,PT,[2],12.7 s
same,Plat,[2],122.6 x10_4/uL
same,RBC,[2],591.2 x10_4/ul
same,Ret,[2],7.9%
same,WBC,[2],46.9 x10_2/uL
same,KIDNEY_L,[2],0.9 g
same,KIDNEY_R,[2],1 g
same,KIDNEY_TOTAL,[2],1.9 g
same,LIVER,[2],9.4 g
same,ALP,[2],685.2 IU/L
same,ALT,[2],29.4 IU/L
same,AST,[2],67.2 IU/L
same,BUN,[2],9.4 mg/dL
same,CRE,[2],0.4 mg/dL
same,Ca,[2],10.4 mg/dL
same,Cl,[2],105.6 meq/L
same,DBIL,[2],0.064 mg/dL
same,GLC,[2],246.2 mg/dL
same,IP,[2],10.5 mg/dL
same,K,[2],3.5 meq/L
same,LDH,[2],214.6 IU/L
same,Na,[2],144.4 meq/L
same,PL,[2],127.6 mg/dL
same,RALB,[2],3.3 g/dL
same,TBIL,[2],0.1 mg/dL
same,TC,[2],72.6 mg/dL
same,TG,[2],26.2 mg/dL
same,TP,[2],5.3 g/dL
same,gamma-GTP,[2],0.8 IU/L
same,TERMINAL_BW,[3],211.5 g
same,Bas,[3],0%
same,Eos,[3],1%
same,Fbg,[3],222.4 mg/dL
same,Hb,[3],12.4 g/dL
same,Ht,[3],36.9%
same,Lym,[3],71.8%
same,MCH,[3],21.1 pg
same,MCHC,[3],33.7%
same,MCV,[3],62.7 fL
same,Mono,[3],4%
same,Neu,[3],20%
same,PT,[3],12.7 s
same,Plat,[3],126.5 x10_4/uL
same,RBC,[3],590.6 x10_4/ul
same,Ret,[3],8.3%
same,WBC,[3],40.7 x10_2/uL
same,KIDNEY_L,[3],0.9 g
same,KIDNEY_R,[3],0.9 g
same,KIDNEY_TOTAL,[3],1.8 g
same,LIVER,[3],8.8 g
same,ALP,[3],813.8 IU/L
same,ALT,[3],29 IU/L
same,AST,[3],64.2 IU/L
same,BUN,[3],10.6 mg/dL
same,CRE,[3],0.4 mg/dL
same,Ca,[3],10.6 mg/dL
same,Cl,[3],105.6 meq/L
same,DBIL,[3],0.07 mg/dL
same,GLC,[3],237.8 mg/dL
same,IP,[3],10.8 mg/dL
same,K,[3],3.6 meq/L
same,LDH,[3],171.4 IU/L
same,Na,[3],143.2 meq/L
same,PL,[3],136.6 mg/dL
same,RALB,[3],3.4 g/dL
same,TBIL,[3],0.1 mg/dL
same,TC,[3],81 mg/dL
same,TG,[3],17.6 mg/dL
same,TP,[3],5.4 g/dL
same,gamma-GTP,[3],1 IU/L
same,TERMINAL_BW,[4],194.9 g
same,Bas,[4],0.4%
same,Eos,[4],1%
same,Fbg,[4],215.4 mg/dL
same,Hb,[4],13.6 g/dL
same,Ht,[4],39.9%
same,Lym,[4],69.2%
same,MCH,[4],21.3 pg
same,MCHC,[4],34.2%
same,MCV,[4],62.3 fL
same,Mono,[4],5.2%
same,Neu,[4],23.2%
same,PT,[4],11.4 s
same,Plat,[4],152.2 x10_4/uL
same,RBC,[4],640.4 x10_4/ul
same,Ret,[4],7.1%
same,WBC,[4],43.7 x10_2/uL
same,KIDNEY_L,[4],0.9 g
same,KIDNEY_R,[4],0.9 g
same,KIDNEY_TOTAL,[4],1.8 g
same,LIVER,[4],7.8 g
same,ALP,[4],873.2 IU/L
same,ALT,[4],24.6 IU/L
same,AST,[4],82 IU/L
same,BUN,[4],14.2 mg/dL
same,CRE,[4],0.4 mg/dL
same,Ca,[4],10.5 mg/dL
same,Cl,[4],104.4 meq/L
same,DBIL,[4],0.072 mg/dL
same,GLC,[4],239 mg/dL
same,IP,[4],10.6 mg/dL
same,K,[4],3.7 meq/L
same,LDH,[4],257.2 IU/L
same,Na,[4],144.8 meq/L
same,PL,[4],138 mg/dL
same,RALB,[4],3.6 g/dL
same,TBIL,[4],0.1 mg/dL
same,TC,[4],77.6 mg/dL
same,TG,[4],21.2 mg/dL
same,TP,[4],5.8 g/dL
same,gamma-GTP,[4],0.8 IU/L
